# Laboratory results taken from patent US5086054A, “Novel arylcycloalkanepolyalkylamines” (SRI International, priority 1990, dated 1992).
# “Also recorded” adds a separate entry of the source. Structures can show the parent of a compound that is named as a salt. Where two headings read alike, the source gives them in different places.
# What was measured:
# [1] = test system: σ receptors; details: literature; cited from earlier work
# [2] = test system: MUSCARINIC ACETYLCHOLINE; type: binding, guinea-pig
# From the text: (§1) This example illustrates the testing of compounds of this invention in dopamine D2, 5-HT2, muscarinic acetylcholine, α1 -adrenoceptor and β-adrenoceptor receptor assays. The receptor assay methods are described in Eur. J. Pharmacol., 155:345 (1988) except that in the β-adrenoceptor assay, [^125 I]-pindolol was used instead of [^3 H] dihydroalprenolol.
# (§2) In this study, guinea-pig brains were used for binding studies. Homogenization and centrifugation procedures for preparation of brain membranes for each receptor assay were the same as described in Example 4 for the σ and PCP receptors. However, brain regions, tissue contents, and buffers may differ depending on the assay. Conditions of binding assays for various receptors were as follows:
# For muscarinic acetylcholine assay, […]) [^3 H]-quinuclidinyl benzylate ([^3 H]-QNB) was incubated in a 2 ml assay (50 mM Tris-HCl, pH 7.4) for 2 hours at 23° C. with membranes from 2 mg of whole brain minus cerebellum.
# (§3) Filtration and washing conditions were the same as described above for the σ receptor assay. Nonspecific binding for each receptor was defined by the inclusion of 1 μM haloperidol for dopamine D2, 1 μM haloperidol for 5-HT2, 10 μM scopolamine for muscarinic acetylcholine, 10 μM prazosin for α1 -adrenoceptor, and 0.2 μM 1-propranolol for β-adrenoceptor. Retained radioactivity was measured by liquid scintillation spectrometry except for ^125 I-pindolol which was measured by the LKB gamma counter.
# (§4) Programs in Biomed. 17:107 (1983)].
# [3] = target: T1, SIGMA RECEPTOR (Cavia porcellus, UniProt Q60492); test: Sigma receptor binding assay ([3H]-d-SKF-10,047 displacement, brain membranes); set-up: species or system guinea-pig (male Hartley); details: for IC50: Table 2, aryl ring substituents, read-out: SIGMA RECEPTOR IC50
# T1 construct: Two milliter aliquots of the brain membrane preparation, containing 1.7 mg of protein; tissue Pel-Freeze (Rogers, Arkansas); host or cells: guinea-pig brains plus cerebella, membranes
# Protocol: (§5) This example illustrates testing of compounds in receptor binding assays.
# (§6) Frozen brains from male Hartley guinea-pigs were obtained from Pel-Freeze (Rogers, Arkansas).
# (§7) The brains plus cerebella were homogenized in 10 volumes (v/w) of 0.1M, pH 7.4, ice-cold Tris-HCl buffer with a Brinkmann polytron at setting 4 for 20 seconds. The homogenates were centrifuged at 20,000×g for 20 minutes at 4° C. The pellets were suspended in 10 volumes of ice-cold water and, after sitting on ice for 10 minutes, were centrifuged 30 minutes at 20,000×g at 4° C. The resulting pellets were resuspended in the above Tris buffer in ratio 1:100 (w/v) for σ receptor assays or in 5 mM Tris-HCl having pH 7.4, for PCP receptor assays. The final suspension was homogenized with a dounce glass-glass tissue grinder Wheaton "200", at small clearance (B), with three strokes before use. Two milliter aliquots of the brain membrane preparation, containing 1.7 mg of protein, were incubated in quadruplicate for one hour at 23° C. with competing mixture of ligand and radioligand. For σ receptors, [^3 H]-d-SKF-10,047, 2 nM was used. For PCP receptors, [^3 H] TCP [^3 H]-1-[1-(2-thienyl)cyclohexyl]piperidine), 1 nM was used. The nonspecific bindings were defined by 0.1 mM d-SKF-10,047 and 0.1 mM phencyclidine respectively for σ and PCP receptors. After incubation, free ligand was separated from bound ligand by rapid filtration through Whatman GF/C filters. The filters had been soaked before use in isoamyl alcohol-saturated water to prevent nonspecific [^3 H]-d-SKF-10,047 binding to the filter. In the PCP receptor assay, the filter was soaked in 0.5% polyethylenimine to reduce the filter binding of [^3 H]-TCP. After filtration, the trapped tissue was washed three times with 4 ml aliquots of 0.1 M ice-cold Tris buffer at pH 7.4 for σ receptors and 5 mM, ice-cold Tris buffer pH 7.4 for PCP receptors. The filters were transferred to 5 ml of liquid scintillation fluid and the retained radioactivity was measured by liquid scintillation spectrometry.
# [4] = target: PCP RECEPTOR; test: PCP receptor binding assay ([3H]-TCP displacement, brain membranes); set-up: species or system guinea-pig (male Hartley)
# Protocol: as §5, §6, §7, §4
# [5] = target: β-ADRENOCEPTOR; test: β-adrenoceptor binding ([125I]-pindolol); set-up: species or system guinea-pig
# From the text: as §1, §2
# For β-adrenoceptor, [^125 I]-pindolol (0.05 nM) was incubated in a 1 ml assay (50 mM Tris-HCl, pH 7.4) for 1 hr at 23° C. with membranes from 1 mg of whole brain minus cerebellum.
# as §3, §4
# [6] = target: 5-HT2 (Cavia porcellus, UniProt A0A286Y537); test: 5-HT2 receptor binding; set-up: species or system guinea-pig
# From the text: as §1, §2, §3, §4
# [7] = target: α1 -ADRENOCEPTOR; test: α1-adrenoceptor binding ([3H]-prazosin); set-up: species or system guinea-pig
# From the text: as §1, §2
# For α1 -adrenoceptor assay, [^3 H]-prazosin (0.4 nM) was incubated in a 1 ml assay (50 mM Tris-HCl, pH 7.4) for 1 hour at 23° C. with membranes from 1 mg of whole brain minus cerebellum.
# as §3, §4
# [8] = Table 2, aryl ring substituents, read-out: PCP RECEPTOR IC50
# Sequence of 5-HT2 (A0A286Y537 1-470): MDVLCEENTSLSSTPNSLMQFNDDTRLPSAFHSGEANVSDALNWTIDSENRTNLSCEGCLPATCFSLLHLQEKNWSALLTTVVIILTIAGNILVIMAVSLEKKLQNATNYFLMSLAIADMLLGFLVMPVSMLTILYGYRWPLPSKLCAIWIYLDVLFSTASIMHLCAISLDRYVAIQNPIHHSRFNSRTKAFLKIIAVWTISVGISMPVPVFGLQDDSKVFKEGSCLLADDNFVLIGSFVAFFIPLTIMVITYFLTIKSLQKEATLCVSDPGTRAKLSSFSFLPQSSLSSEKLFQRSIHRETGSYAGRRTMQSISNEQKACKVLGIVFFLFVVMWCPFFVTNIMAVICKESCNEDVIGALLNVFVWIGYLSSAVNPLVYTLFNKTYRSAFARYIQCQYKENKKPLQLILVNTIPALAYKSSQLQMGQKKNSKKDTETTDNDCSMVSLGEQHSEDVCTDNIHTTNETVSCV
# T1 sequence (Q60492 whole entry): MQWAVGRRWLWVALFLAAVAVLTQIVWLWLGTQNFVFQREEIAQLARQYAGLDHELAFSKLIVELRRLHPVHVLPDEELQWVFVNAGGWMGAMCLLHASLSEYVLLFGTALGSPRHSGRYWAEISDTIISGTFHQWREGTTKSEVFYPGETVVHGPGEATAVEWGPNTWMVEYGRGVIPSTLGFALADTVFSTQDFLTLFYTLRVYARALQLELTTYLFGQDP
Structure (SMILES),potency at σ receptors (in words) [3],SIGMA RECEPTOR SLOPE ([3]; Table 2),IC50 [3],"IC50 [4, 8]",further results
"CCCN1CCC[C@H](c2cccc(O)c2)C1 [(+)-3-PPP, (+)-3-(3-hydroxyphenyl)-N-(1-propyl)piperidine]",,,,,affinity / binding at σ receptors (in words) [1]: bind to σ receptors
"O=C(OCCN1CCOCC1)C1(c2ccccc2)CCCCC1 [Compound 12, 2-(4-Morpholino)ethyl 1-phenylcyclohexane-1-carboxylate hydrochloride]",,,,,"IC50 ([2]; Table 4, IC50 and nM only stated in text, read-out: MUSCARINIC ACETYLCHOLINE): 14000 nM; IC50 ([2]; read-out: potency (IC50) at muscarinic acetylcholine receptor): 14000 nM; more potent at σ receptors than at muscarinic acetylcholine receptors ([2]; selectivity σ vs muscarinic): at least 300 fold; SIGMA RECEPTOR SLOPE ([3]; Table 1, slope of dose response curve): 0.48 ± 0.05; potency at σ receptors (in words) ([3]; hydrochloride): σ receptor potency increased; also recorded: very potent in the σ assay; also recorded: very high; σ potency compared with other known σ ligands (in words) ([3]; vs haloperidol, DTG, (+)-3-PPP, hydrochloride): not as great as other known σ ligands, such as for example haloperidol; also recorded: comparable to other σ ligands such a DTG and (+)-3-PPP; IC50 ([4]; Table 1, mean ± error (n), read-out: PCP RECEPTOR IC50): > 100000 nM; IC50 ([4]; Table 4, IC50 and nM only stated in text, read-out: PCP): > 100000 nM; potency at PCP receptors (in words) ([4]; hydrochloride): inactive in the PCP assay; also recorded: very weak or inactive in the PCP assay; also recorded: negligible; also recorded: low potency at PCP receptors; also recorded: relative inactivity; IC50 ([4]; read-out: IC50 / potency for PCP receptors): < 100000 nM; IC50 ([5]; Table 4, IC50 and nM only stated in text, read-out: β-ADRENOCEPTOR): > 200000 nM; IC50 ([5]; read-out: potency for β-adrenoceptor): > 200000 nM; IC50 ([6]; Table 4, IC50 and nM only stated in text, read-out: 5-HT2): 18700 nM; IC50 ([6]; read-out: potency for 5-HT2): 18700 nM; more potent at σ receptors than at 5-HT2 receptors ([6]; selectivity σ vs 5-HT2): ≥ 400 fold; IC50 ([7]; Table 4, IC50 and nM only stated in text, read-out: α1 -ADRENOCEPTOR): > 100000 nM; IC50 ([7]; read-out: potency for α1-adrenoceptor): > 100000 nM"
COc1ccc(C2(CN3CCCC3)CCCCC2)cc1 [Compound 34],somewhat potent,0.80 ± 0.07,0.546 µM,> 25000 nM,selectivity for σ receptors (in words) [3]: very selective for σ receptors; potency at PCP receptors (in words) [4]: inactive at PCP sites
COc1ccc(C2(CN3CCCC3)CCCCC2)cc1OC [Compound 35],poor to reasonable potency at σ sites,0.66 ± 0.07,1.32 µM,> 25000 nM,selectivity for σ receptors (in words) [3]: high selectivity for σ receptors
Oc1cccc(C2(CN3CCOCC3)CCCCC2)c1 [Compound 36],,,> 25 µM,> 25000 nM,
COc1cccc(C2(CN3CCOCC3)CCCCC2)c1 [Compound 37],,,> 25 µM,> 25000 nM,
COc1ccc(C2(CN3CCOCC3)CCCCC2)cc1OC [Compound 38],essentially inactive in both σ and PCP binding assays,,> 25 µM,> 25000 nM,potency at PCP receptors (in words) [4]: essentially inactive in both σ and PCP binding assays
CCN(CC)CC1(c2ccc([N+](=O)[O-])cc2)CCCCC1 [Compound 39],,0.44 ± 0.01,0.304 µM,> 25000 nM,
CN(C)CC1(c2cccc(O)c2)CCCCC1 [Compound 40],,0.61 ± 0.01,10.1 µM,> 25000 nM,
Cc1ccc(C2(CN(C)C)CCCCC2)cc1 [Compound 41],,0.62 ± 0.03,0.541 µM,> 25000 nM,
